Source: patent US20090118202A1, “COMPOSITIONS AND METHODS OF TREATING HYPERTENSION WITH TANNIN COMPLEXES” (Texas Tech University, priority 2007, published 2009)

Legend:
AT1 receptor = experiment: AT1 specific AngII binding in WB cells exposed to tannic acid; assay type: cell-based, rat; conditions: pretreatment of cells with the inhibitor
Description: The present invention provides the use of hydrolysable tannic acids to affect angiotensin type 1 (AT1) receptor expression. The present invention used WB (i.e., a continuously passaged rat liver epithelial cell line) which expresses the native AT1 receptor. Under normal culture conditions, cells were exposed to tannic acid and changes in receptor expression and signaling intermediates were determined.
FIG. 3A is an image of a plot illustrating the effects of tannic acid on native AT1, rat liver cells were exposed to tannic acid at indicated concentration for 20 hours.

MAP-kinases p42 and p44 = experiment: MAP-kinase phosphorylation in rat liver cells exposed to tannic acid (Western blot); assay type: cell-based; conditions: pretreatment of cells with the inhibitor
Description: FIGS. 6A-6C are images of a Western blot illustrating rat liver cells exposed to tannic acid in the presence or absence of the MAP-Kinase specific cell permeable inhibitor PD 98059 for 20 hours and total cell extracts were prepared. Equal amount of proteins were resolved by 8% polyacrylamide gel electrophoresis and immunoblotted with phospho-specific MAP-Kinase antibody in FIG. 6A, anti-MAP-kinase antibody in FIG. 6B, AT1 specific antibody in FIG. 6C top or anti-beta-actin antibody in FIG. 6C bottom. Immunoreactive bands were visualized using a chemiluminescence Western blotting system according to the manufacturer's instruction. In each plate protein concentration was determined using Bio-Rad protein assay reagent.

COc1cccc(-c2cc(=O)c3ccccc3o2)c1N [MAP kinase specific inhibitor, PD98059]
prevention of tannic acid induced down regulation of the AT1 receptor (AT1 receptor): ineffective | prevention of tannic acid induced MAP-kinases phosphorylation (MAP-kinases p42 and p44): ineffective
